# Measurements taken from patent publication US8058243B2, “Method for treating a brain cancer with ifenprodil” (HSC Research and Development Limited Partnership, priority 2006, dated 2011).
# Where a name gives a salt, the structure may show the parent alone. Read-outs that look alike come from different tables or passages of the source. Residues, ends and D or L forms follow the SMILES beside them. *: point of attachment. Cbz = O=C(OCc1ccccc1)*
# System: murine neural precursor cells (neurosphere cultures)
# Assay: HTS of LOPAC library against secondary neurosphere cultures, MTT proliferation assay at 3 μM, day 7 (z score, P value)
# Assay type: cell-based, mouse
# [1] = LOPAC library screen, 3 μM, MTT, neurosphere cultures
# [2] = LOPAC primary screen, neurosphere MTT proliferation, 3 μM, day 7
# [3] = yes/no: significantly inhibited neurosphere proliferation in primary screen
# [4] = yes = significantly inhibited neurosphere proliferation (P<0.01) in the primary screen
# [5] = LOPAC library screen, 3 μM, MTT, secondary neurosphere cultures, day 7
# [6] = yes/no: significantly inhibited neurosphere proliferation (P<0.01) in primary screen
# [7] = LOPAC screen, neurosphere MTT proliferation, 3 μM, day 7
# [8] = yes/no: significantly inhibited neurosphere proliferation (P<0.01) in the primary screen
# [9] = LOPAC library screen at 3 μM, secondary neurosphere cultures, MTT
# [10] = primary LOPAC screen, 3 μM, MTT, neurosphere proliferation
# [11] = yes/no: significantly inhibited neurosphere proliferation in the primary screen
Compound,Z score [2],Z Score,Activity [6],further results
OC[C@H]1O[C@@H](n2cnc3c(NCCc4ccccc4)ncnc32)[C@H](O)[C@@H]1O [N6-2-Phenylethyladenosine],0.531,,,Z Score [1]: 0.5312; Activity [3]: no
Oc1ccc2c3c1O[C@H]1c4oc5ccccc5c4C[C@@]4(O)[C@@H](C2)N(CC2CC2)CC[C@]314 [Naltriben methanesulfonate],−0.361,−0.3606,,Activity [3]: no
"OC1(c2ccc(Cl)cc2)CCN(Cc2c[nH]c3ccccc23)CC1 [L-741,626]",−1.009,−1.009,,Activity [4]: no
"C[C@]12CC[C@@H](O)C[C@@H]1CC[C@@H]1[C@@H]2CC[C@]2(C)[C@@H](O)CC[C@@H]12 [5alpha-Androstane-3alpha, 17beta-diol]",,−0.3811,,
Cc1cn[nH]c1.Cl [4-Methylpyrazole hydrochloride],1.042,1.042,,Activity [4]: no
"Histamine, R(−)-alpha-methyl-, dihydrochloride",−1.469,,no,Z Score [5]: −1.469
C[N+](C)(C)CCOC(=O)CCC(=O)OCC[N+](C)(C)C [Succinylcholine chloride],−1.930,−1.93,,Activity [3]: no
O=C(O)Cc1ccccc1Nc1c(Cl)cccc1Cl [Diclofenac sodium],,,no,Z Score [1]: 0.2988; Z score [7]: 0.299
Cc1cnc(NC(=O)C2=C(O)c3ccccc3S(=O)(=O)N2C)s1 [Meloxicam sodium],,,,Activity [4]: no
CN1CCN(C2Cc3ccccc3Sc3ccc(Cl)cc32)CC1.O=C(O)/C=C\C(=O)O (racemic) [(±)-Octoclothepin maleate],1.473,,,Activity [8]: no
CSc1ccc(C(=O)c2[nH]c(=O)[nH]c2C)cc1 [Enoximone],,,no,Z Score [9]: −0.6237; Z score [7]: −0.624
Quipazine dimaleate,−1.444,−1.444,,Activity [3]: no
"LY-367,265",−0.407,−0.407,no,
CNC(=O)c1cc2c(cn1)[nH]c1ccccc12 [N-Methyl-beta-carboline-3-carboxamide],,,no,"Z Score (168 h, 3 µM): 0.6988; Z score (168 h, 3 µM): 0.699"
"CC1CN(S(=O)(=O)c2cccc3cnccc23)CCN1.Cl.Cl [L-701,324]",0.451,0.4513,,
"CCc1c(C(=O)OC)ncc2[nH]c3cc(OC)c(OC)cc3c12 [Methyl 6,7-dimethoxy-4-ethyl-beta-carboline-3-carboxylate]",−1.326,−1.326,no,
C[N+](C)(C)CCCCCC[N+](C)(C)C [Hexamethonium bromide],−0.820,−0.8199,,Activity [8]: no
Cl.NC(N)=NCCNS(=O)(=O)c1cccc2cnccc12 [HA-1004 hydrochloride],0.316,0.3161,no,
"OC[C@H]1NC[C@@H](O)[C@@H]1O [1,4-Dideoxy-1,4-imino-D-arabinitol]",,,no,"Z Score (168 h, 3 µM): −0.008617; Z score (168 h, 3 µM): −0.009"
O.O.O=c1c(O)c(-c2ccc(O)c(O)c2)oc2cc(O)cc(O)c12 [Quercetin dihydrate],−2.302,−2.302,,Activity [3]: no
COc1ccc(CCN(C)CCCC(C#N)(c2cc(OC)c(OC)c(OC)c2)C(C)C)cc1OC.Cl (stereo not drawn) [(B1)-Methoxyverapamil hydrochloride],,−1.407,,
CCn1nc(C(=O)O)c(=O)c2cc3c(cc21)OCO3 [Cinoxacin],,,no,Z Score [9]: −1.095; Z score [7]: −1.095
CNC(=O)[C@H]1O[C@@H](n2cnc3c(NCc4ccc(N)cc4)ncnc32)[C@H](O)[C@@H]1O [AB-MECA],,0.7604,,Z score [10]: 0.760; Activity [11]: no
C#CCN1C(C)=C(C(=O)OC)C(c2cccc([N+](=O)[O-])c2)C(C(=O)OCC)=C1C (stereo not drawn) [MRS 1845],−0.006,−0.006196,,Activity: no
CCNC(=O)[C@H]1O[C@@H](n2cnc3c(N)ncnc32)[C@H](O)[C@@H]1O [5′-N-Ethylcarboxamidoadenosine],−2.587,,,Z Score [5]: −2.587; Activity [8]: yes
CC(C)C[C@H](NC(=O)[C@H](O)[C@H](N)Cc1ccccc1)C(=O)O [Epibestatin hydrochloride],,,no,Z Score [9]: −0.7869; Z score [7]: −0.787
CC(=O)N[C@@H](CS)C(=O)O [N-Acetyl-L-Cysteine],,,,Z Score [5]: −1.621; Z score [10]: −1.621; Activity [11]: no
"CN(C)CCC(c1ccc(Br)cc1)c1ccccn1.O=C(O)/C=C\C(=O)O (single isomer, unassigned; (+)) [(+)-Brompheniramine maleate]",−3.976,,,Z Score [5]: −3.976; Activity [8]: yes

Compound,Z score [2],Z Score,Activity [6],further results
Nc1ncnc2c1ncn2C1CCCO1 (stereo not drawn) [SQ 22536],,0.5616,,Z score [10]: 0.562; Activity [11]: no
Vinblastine sulfate salt,−9.396,−9.396,,Activity [8]: yes
CNCC(O)c1ccc(O)cc1 (racemic) [(±)-Synephrine],−0.149,,,Activity [3]: no
Cl.c1ccc2c(N3CCNCC3)cccc2c1 [1-(1-Naphthyl)piperazine hydrochloride],0.230,0.2301,,Activity [3]: no
N=C(N)N/N=C/c1c(Cl)cccc1Cl [Guanabenz acetate],−1.906,,no,Z Score [5]: −1.906
O=c1cc(-c2ccc(O)cc2)oc2cc(O)cc(O)c12 [Apigenin],,,,"Z Score (168 h, 3 µM): 1.824; Z score (168 h, 3 µM): 1.824; Activity [11]: no"
"N[C@H](C(=O)O)c1cc(O)cc(O)c1 [(S)-3,5-Dihydroxyphenylglycine]",,,,Z Score [9]: −0.3364
N=C(N)NC(=N)Nc1ccccc1 [1-Phenylbiguanide],,,,"Z Score (168 h, 3 µM): −2.689; Z score (168 h, 3 µM): −2.689; Activity [8]: yes"
COc1cc2c(CCNC(C)=O)c[nH]c2cc1O [6-Hydroxymelatonin],0.377,,no,Z Score [1]: 0.3767
Cl.O=C(OC1CCN(CCCl)CC1)C(c1ccccc1)c1ccccc1 [4-Diphenylacetoxy-N-(2-chloroethyl)piperidine hydrochloride],0.864,0.8645,no,
CCCN1C[C@H](CSC)C[C@@H]2c3cccc4[nH]cc(c34)C[C@H]21 [Pergolide methanesulfonate],−2.657,,,Z Score [5]: −2.657; Activity [8]: yes
COCC(=O)O[C@]1(CCN(C)CCCc2nc3ccccc3[nH]2)CCc2cc(F)ccc2[C@@H]1C(C)C [Mibefradil dihydrochloride],−0.027,,,Z Score [1]: −0.02693; Activity [4]: no
Cl.Clc1cc(I)cc(Cl)c1NC1=NCCN1 [p-Iodoclonidine hydrochloride],−0.161,−0.1606,no,
CC(C)[C@H](NC(=O)OCc1ccccc1)C(=O)N[C@H](C=O)Cc1ccccc1 [MDL 28170] (Cbz-Val-Phe-aldehyde),,,,"Z Score (168 h, 3 µM): −1.139; Z score (168 h, 3 µM): −1.139"
CC(C)Cc1ccc([C@H](C)C(=O)O)cc1 [S(+)-Ibuprofen],−0.733,,no,Z Score [9]: −0.7335
CN1CCN(CC(=O)N2c3ccccc3C(=O)Nc3cccnc32)CC1.Cl.Cl [Pireuzepine dihydrochloride],,−0.545,,
"COc1cccc(-c2cc(=O)c3ccccc3o2)c1N [PD 98,059]",0.903,0.9027,,Activity: no
CC(C)C1C2CCC(C2)C1N.Cl (stereo not drawn) [AGN 192403 hydrochloride],,0.7032,,Z score [10]: 0.703; Activity [11]: no
"Cn1c(=O)[nH]c2ncn(C)c2c1=O [1,7-Dimethylxanthine]",,,no,"Z Score (168 h, 3 µM): −0.6623; Z score (168 h, 3 µM): −0.662"
N#Cc1c(-c2ccccc2)no[n+]1[O-] [4-Phenyl-3-furoxancarbonitrile],,,,"Z Score (168 h, 3 µM): 0.9313; Z score (168 h, 3 µM): 0.931; Activity [3]: no"
"Ic1ccccc1CNC1C2CCN(CC2)C1C(c1ccccc1)c1ccccc1.O=C(O)C(=O)O [L-703,606 oxalate]",−0.507,,,Z Score [9]: −0.5069; Activity [4]: no
O=C(O)CNC(=O)C(CS)Cc1ccccc1 (racemic) [DL-Thiorphan],−0.312,,,Z Score [9]: −0.3116; Activity [3]: no
Nc1ccc(S(=O)(=O)Nc2ccnn2-c2ccccc2)cc1 [Sulfaphenazole],−1.362,,,Z Score [5]: −1.362; Activity [3]: no
NS(=O)(=O)c1cc(C(=O)O)c(NCc2ccco2)cc1Cl [Furosemide],1.889,,,"Activity: no; Z Score (LOPAC library screen at 3 μM, MTT, secondary neurosphere cultures, screened in singlets): 1.889"
c1ccc2cc(-c3ncc[nH]3)ccc2c1 [Benazoline oxalate],,,no,Z Score [9]: −0.3348; Z score [7]: −0.335
CC(C)(C)NCC(O)COc1cccc2[nH]c(=O)[nH]c12.Cl (racemic) [(±)-CGP-12177A hydrochloride],,,no,Z score [7]: −1.611
Cc1cc(C)c(/C=C2\C(=O)Nc3ccccc32)[nH]1 [SU 5416],−0.662,−0.6622,,Activity [3]: no
